# Source: ChEMBL document CHEMBL2157860, “Optimization of a potent class of arylamide colony-stimulating factor-1 receptor inhibitors leading to anti-inflammatory clinical candidate 4-cyano-N-[2-(1-cyclohexen-1-yl)-4-[1-[(dimethylamino)acetyl]-4-piperidinyl]phenyl]-1H-imidazole-2-carboxamide (JNJ-28312141)” (J Med Chem, 2011)
# Columns and labels:
# [1] = Metabolic stability in mouse liver microsomes assessed as compound remaining after 10 mins; assay type: ADME, Microsome; settings: read-out: Stability
# [2] = Metabolic stability in human liver microsomes assessed as compound remaining after 10 mins; assay type: ADME, Microsome; settings: read-out: Stability
# [3] = Cmax in CD1 mouse at 5 mg/kg, po; assay type: ADME, organism-based; parameters: dose 5 mg/kg, route oral; settings: in vivo
# [4] = AUClast in CD1 mouse at 5 mg/kg, po; assay type: ADME, organism-based; parameters: time 0 - last, dose 5 mg/kg, route oral; settings: plasma
# [5] = Solubility of the compound in PBS; assay type: physicochemical
# [6] = (§1) Half life in CD1 mouse at 0.5 mg/kg, iv; assay type: ADME, organism-based; parameters: dose 0.5 mg/kg, route intravenous; settings: CD1, mouse, in vivo
# [7] = (§2) Apparent volume of distribution in CD1 mouse at 0.5 mg/kg, iv; assay type: ADME, organism-based; parameters: dose 0.5 mg/kg, route intravenous; settings: CD1, mouse, in vivo, read-out: Vz
# [8] = Clearance in CD1 mouse at 0.5 mg/kg, iv; assay type: ADME, organism-based; parameters: dose 0.5 mg/kg, route intravenous; settings: in vivo
# [9] = Half life in CD1 mouse at 5 mg/kg, po; assay type: ADME, organism-based; parameters: dose 5 mg/kg, route oral; settings: in vivo
# [10] = Oral bioavailability in CD1 mouse at 5 mg/kg; assay type: ADME, organism-based; settings: in vivo
# [11] = test system: Mus musculus; test: as §1; assay type: ADME, organism-based; parameters: dose 0.5 mg/kg, route intravenous; settings: mouse, in vivo
# [12] = test system: Mus musculus; test: as §2; assay type: ADME, organism-based; parameters: dose 0.5 mg/kg, route intravenous; settings: mouse, in vivo
# [13] = Tmax in CD1 mouse at 5 mg/kg, po; assay type: ADME, organism-based; parameters: dose 5 mg/kg, route oral; settings: in vivo
# [14] = Drug uptake in CD1 mouse at 5 mg/kg, po after 4 hrs; assay type: ADME, organism-based; parameters: dose 5 mg/kg, route oral; settings: in vivo, read-out: Drug uptake
# [15] = test system: Mus musculus; test: (§3) Drug uptake in CD1 mouse at 5 mg/kg, po after 8 hrs; assay type: ADME, organism-based; parameters: dose 5 mg/kg, route oral; settings: mouse, in vivo, 8 h, BLD = below limit of detection
# [16] = test system: Liver; test: Metabolic stability in mouse liver microsomes assessed as glutathione conjugation at 20 to 40 uM after 1 hr by LC/MS analysis; assay type: ADME, Microsome
# [17] = as §3; assay type: ADME, organism-based; parameters: dose 5 mg/kg, route oral; settings: CD1, mouse, in vivo, read-out: Drug uptake
SMILES,remaining at 10 min [1],remaining at 10 min [2],Cmax [3],AUC(0-t) [4],solubility [5],half-life [6],Vd [7],clearance [8],half-life [9],bioavailability [10],also measured
N#Cc1c[nH]c(C(=O)Nc2ccc(C3CCN(Cc4ccccn4)CC3)cc2C2=CCCCC2)n1,79%,75%,,,,,,,,,
Cn1cnc(CC(=O)N2CCC(c3ccc(NC(=O)c4nc(C#N)c[nH]4)c(C4=CCCCC4)c3)CC2)c1,90%,82%,81 ng/mL,101 ng·h/mL,36.7 µM,0.54 h,3.85 L/kg,81.8 mL/min/kg,0.4 h,13%,
N#Cc1c[nH]c(C(=O)Nc2ccc(C3CCN(C(=O)CN4CCOCC4)CC3)cc2C2=CCCCC2)n1,23%,66%,,,,,,,,,
N#Cc1c[nH]c(C(=O)Nc2ccc(C3CCN(C(=O)c4cccnc4)CC3)cc2C2=CCCCC2)n1,66%,56%,,,,,,,,,
N#Cc1c[nH]c(C(=O)Nc2ccc(C3CCN(c4ccccn4)CC3)cc2C2=CCCCC2)n1,77%,77%,,,,,,,,,
N#Cc1c[nH]c(C(=O)Nc2ccc(C3CCN(C(=O)Cc4ccccn4)CC3)cc2C2=CCCCC2)n1,37%,34%,,,1.6 µM,,,,,,
N#Cc1c[nH]c(C(=O)Nc2ccc(C3CCN(CCN4CCOCC4)CC3)cc2C2=CCCCC2)n1,96%,77%,461 ng/mL,1550 ng·h/mL,25.9 µM,,,,2.37 h,101%,t1/2 [11]: 0.23 h; Vz [12]: 8.99 L/kg
CS(=O)(=O)CCN1CCC(c2ccc(NC(=O)c3nc(C#N)c[nH]3)c(C3=CCCCC3)c2)CC1,98%,94%,866 ng/mL,2130 ng·h/mL,4.2 µM,1.44 h,3.84 L/kg,30.7 mL/min/kg,1.55 h,88%,
N#Cc1c[nH]c(C(=O)Nc2ccc(C3CCN(C(=O)c4ccc[n+]([O-])c4)CC3)cc2C2=CCCCC2)n1,89%,100%,,,,,,,,,
N#Cc1c[nH]c(C(=O)Nc2ccc(C3CCN(C(=O)CCN4CCOCC4)CC3)cc2C2=CCCCC2)n1,23%,57%,,,,,,,,,
N#Cc1c[nH]c(C(=O)Nc2ccc(C3CCN(C(=O)c4cc[n+]([O-])cc4)CC3)cc2C2=CCCCC2)n1,92%,100%,,,,,,,,,
N#CCCN1CCC(c2ccc(NC(=O)c3nc(C#N)c[nH]3)c(C3=CCCCC3)c2)CC1,93%,100%,,,11.8 µM,,,,,,
N#Cc1c[nH]c(C(=O)Nc2ccc(C3CCNCC3)cc2C2=CCCCC2)n1.O=C(O)C(F)(F)F,96%,100%,50 ng/mL,95.2 ng·h/mL,38.8 µM,7.16 h,32 L/kg,51.7 mL/min/kg,2 h,12%,Tmax [13]: 0.25 h; concentration at 4 h [14]: 7 ng/mL; Drug uptake [15]: BLD; Stability [16]: Stable
N#Cc1c[nH]c(C(=O)Nc2ccc(C3CCN(C(=O)Cc4cccnc4)CC3)cc2C2=CCCCC2)n1,21%,28%,,,10.4 µM,,,,,,
N#Cc1c[nH]c(C(=O)Nc2ccc(C3CCN(C(=O)Cc4ccncc4)CC3)cc2C2=CCCCC2)n1,24%,11%,118 ng/mL,68 ng·h/mL,0.39 µM,0.41 h,7.27 L/kg,205 mL/min/kg,0.23 h,18%,
CC1CCN(c2cc(N3CCN(C)CC3)ccc2NC(=O)c2ccc(C#N)o2)CC1,,,285 ng/mL,1160 ng·h/mL,,3 h,12.3 L/kg,46 mL/min/kg,3.1 h,75%,Tmax [13]: 0.5 h; concentration at 4 h [14]: 183 ng/mL; concentration at 8 h [17]: 64 ng/mL

# Continued, in another order:
remaining at 10 min [1],remaining at 10 min [2],Cmax [3],AUC(0-t) [4],solubility [5],half-life [6],Vd [7],clearance [8],half-life [9],bioavailability [10],SMILES,also measured
100%,89%,,,,,,,,,N#Cc1c[nH]c(C(=O)Nc2ccc(C3CCN(C(=O)[C@H](O)CO)CC3)cc2C2=CCCCC2)n1,
70%,98%,,,,,,,,,N#Cc1c[nH]c(C(=O)Nc2ccc(C3CCN(CC(=O)O)CC3)cc2C2=CCCCC2)n1,
94%,100%,,,,,,,,,N#Cc1c[nH]c(C(=O)Nc2ccc(C3CCN(C(CO)CO)CC3)cc2C2=CCCCC2)n1,
79%,81%,55 ng/mL,141 ng·h/mL,28.6 µM,1.39 h,6.43 L/kg,53.3 mL/min/kg,0.88 h,9.8%,N#Cc1c[nH]c(C(=O)Nc2ccc(C3CCN(CC(N)=O)CC3)cc2C2=CCCCC2)n1,
93%,94%,,,,,,,,,CC(C)(N)C(=O)N1CCC(c2ccc(NC(=O)c3nc(C#N)c[nH]3)c(C3=CCCCC3)c2)CC1,
86%,100%,24 ng/mL,125 ng·h/mL,0.91 µM,1.2 h,1.58 L/kg,23.9 mL/min/kg,1.55 h,2.3%,CS(=O)(=O)CC(=O)N1CCC(c2ccc(NC(=O)c3nc(C#N)c[nH]3)c(C3=CCCCC3)c2)CC1,
100%,89%,,,,,,,,,N#Cc1c[nH]c(C(=O)Nc2ccc(C3CCN(C(=O)Cc4c[nH]cn4)CC3)cc2C2=CCCCC2)n1,
89%,100%,,,> 40 µM,,,,,,N#Cc1c[nH]c(C(=O)Nc2ccc(C3CCN(CCO)CC3)cc2C2=CCCCC2)n1,
79%,67%,,,,,,,,,N#Cc1c[nH]c(C(=O)Nc2ccc(C3CCN(C(=O)CNCCO)CC3)cc2C2=CCCCC2)n1,
81%,87%,296 ng/mL,1020 ng·h/mL,37.3 µM,1.36 h,7.11 L/kg,60.6 mL/min/kg,2.33 h,83%,CN(C)CC(=O)N1CCC(c2ccc(NC(=O)c3nc(C#N)c[nH]3)c(C3=CCCCC3)c2)CC1,
61%,80%,24 ng/mL,129 ng·h/mL,8.2 µM,2.41 h,10.3 L/kg,49.2 mL/min/kg,1.63 h,9.3%,N#Cc1c[nH]c(C(=O)Nc2ccc(C3CCN(C(=O)NCCO)CC3)cc2C2=CCCCC2)n1,
70%,78%,,,,,,,,,N#Cc1c[nH]c(C(=O)Nc2ccc(C3CCN(C(N)=O)CC3)cc2C2=CCCCC2)n1,
60%,69%,,,,,,,,,CN(CCO)CC(=O)N1CCC(c2ccc(NC(=O)c3nc(C#N)c[nH]3)c(C3=CCCCC3)c2)CC1,
86%,95%,209 ng/mL,454 ng·h/mL,26.1 µM,1.2 h,2.8 L/kg,27 mL/min/kg,1.88 h,15%,CC(=O)N1CCC(c2ccc(NC(=O)c3nc(C#N)c[nH]3)c(C3=CCCCC3)c2)CC1,Tmax [13]: 0.5 h; concentration at 4 h [14]: 54 ng/mL; concentration at 8 h [17]: 9 ng/mL; Stability [16]: Stable
